“Also recorded” adds a separate entry of the source.
Key:
[1] = test system: Human ovarian carcinoma SKOV3; assay: Cancer cells inhibited in vitro; type: cell-based
Description: (§1) As set forth in Table 7 below, all malignant tumors evaluated in tissue culture, endothelial cells and vascular smooth muscle cells were sensitive to inhibition. Thus, compound 1436 has application in the control of growth factor dependent proliferation of many types of tissue.
Using the assay described above, the anticancer effects of compound 1437 against several cancer lines was assessed.

[2] = Effect on fasting blood glucose in mice; type: in vivo, mouse (CD-1); details: intravenous; 1436 in D5W, 1437 in water
Description: To study the effect of steroid administrator or the NHE responsible for secretion of insulin, several of the aminosterols from shark liver were administered to fasting mice. Male CD-1 mice were assigned to one of four treatment groups. Whole blood glucose was tested using glucometer (Lifescan Glucometer II and One Touch test strips). Statistical analysis was via one-way analysis of variance (ANOVA) followed by subsequent Bonferonni's t-test.

Xenopus tadpoles [3] = assay: Tadpole assay; details: for observed response in tadpole: stage 59-60 Xenopus
[4] = test system: vitelline capillaries of 3- to 5-day chick embryo; assay: Chick embryo vitelline capillary regression assay; type: in vivo; details: for vitelline capillary regression, potency in words: chick embryo capillary bed
Description: Using the chick embryo vitelline capillaries assay, compounds were tested for their ability to induce capillary regression. Each compound was applied in 0.1 ml of 15% Ficol 400 and PBS onto the embryo, and vascular regression was assessed after 60 minutes.
The 3-day chick embryo consists of an embryonic disc from which numerous vessels emerge and return, forming a "figure 8"-shaped structure--the embryo in the center with vascular loops extending outward over both poles. […] Following a lag period of around 15 minutes, the constriction of continuity between capillary and secondary vessels, generally on the "venous" side, was observed. Continued pulsatile blood flow progressed, resulting in a "swelling" of the blind tube, followed by a pinching off of the remaining connection and formation of an enclosed vascular sac resembling a "blood island." This process progressed until only the largest vessels remained intact.

NHE = assay: Assay for direct inhibition of NHE; type: cell-based; details: relative to squalamine
Excerpt: Moreover, other aminosterols have shown anti-angiogenic activity. Compounds were subjected to a various assays, including the chick embryo capillary regression assay, the tadpole assay, the assay for inhibition of endothelial cord formation, and the assay for direct inhibition of NHE, as described above, to determine their utilities. As evident from the above data, correlation among the results from the chick, tadpole and in vitro inhibition of endothelial cell cord formation assays is excellent.
Through the application of these assays, compound 319 emerged as an attractive alternative to squalamine. […] Further properties of compound 319 are discussed below.

Xenopus tadpoles [5] = details: in vivo
NHE1β = details: nucleated erythrocytes; cited from earlier work
human melanoma = assay: Effect on growth of human melanoma, time course (FIG. 17); type: cell-based
LLC = LLC MTT assay (Table II); type: cell-based; details: Lewis lung carcinoma, read-out: Minimum Effective Concentration, LLC MTT
NHE5 = assay: NHE isoform selectivity inferred from tadpole and chick embryo assays
human T-cells = assay: Inhibition of PHA-stimulated human lymphocytes; type: cell-based; details: Homo sapiens, T-cell; 10 μg/ml; read-out: inhibition of blast transformation
Excerpt: Results are tabulated below.

[6] = test system: Human colon carcinoma HT29; assay: Cancer cells inhibited in vitro; type: cell-based; details: 10 μg/ml
Excerpt: as §1

[7] = test system: Human colon carcinoma SW948; assay: Cancer cells inhibited in vitro; type: cell-based; details: 10 μg/ml
Excerpt: as §1

Human melanoma WM 1617 = assay: Cancer cells inhibited in vitro; type: cell-based; details: 10 μg/ml
Excerpt: as §1

Lewis lung carcinoma = assay: Cancer cells inhibited in vitro; type: cell-based; details: 10 μg/ml
Excerpt: as §1

Murine B16 melanoma = assay: Cancer cells inhibited in vitro; type: cell-based; details: 10 μg/ml
Excerpt: as §1

Murine L1210 leukemia = assay: Cancer cells inhibited in vitro; type: cell-based; details: 10 μg/ml
Excerpt: as §1

[8] = test system: Human coronary artery smooth muscle cells; assay: Non-transformed cells inhibited in vitro; type: cell-based; details: 10 μg/ml
Excerpt: as §1

[9] = test system: Human microvascular endothelial cells; assay: Non-transformed cells inhibited in vitro; type: cell-based; details: 10 μg/ml
Excerpt: as §1

[10] = test system: bovine pulmonary endothelial cells; assay: Non-transformed cells inhibited in vitro; type: cell-based; details: 10 μg/ml
Excerpt: as §1

[11] = test system: human umbilical venous endothelial cells; assay: Non-transformed cells inhibited in vitro; type: cell-based; details: 10 μg/ml
Excerpt: as §1

B16 melanoma = assay: Synergistic inhibition of tumor growth, B16 melanoma in mice; type: in vivo, mouse; details: squalamine 15 mg/kg/day; compound 1436 tolerable schedule
Description: Based on the idea that tumor growth involves both the clonal expansion of a malignant cell along with the development of a supporting vascular supply, a combination of compound 1436 with squalamine was tested to determine whether it would achieve a synergistic effect on solid tumor growth. This concept was evaluated in the B16 melanoma model.
Animals were implanted with B16 melanoma followed by treatment with compound 1436 or 1256 administered in a combined schedule or separately. […] Thus, a combination of these two compounds achieves a therapeutic benefit in tumors dependent on neovascularization that may prevent metastatic spread.

[12] = test system: human coronary artery smooth muscle; assay: Proliferation of human coronary artery smooth muscle in vitro; type: cell-based; details: FIG. 15
Excerpt: Aminosterols of the invention may also have utility in inhibiting the growth factor mediated proliferation of smooth muscle within the artery. Following coronary angioplasty, reocclusion commonly occurs, secondary to reparative proliferation of the vascular smooth muscle within the wall of the surgically manipulated blood vessel. This process generally takes place over the course of 7-10 days. To evaluate whether an agent could prevent the growth factor mediated proliferation of smooth muscle within the artery, compound 1436 was evaluated in vitro for its effect on the proliferation of human coronary artery smooth muscle. Results for compound 1436 are shown in FIG. 13, and those for squalamine are shown in FIG. 14, with FIG. 15 being a composite logarithmic plot.

[13] = Effect on growth and weight gain of growing mice; type: in vivo, mouse (C57B)
Description: Animals were dosed QTD (i.p.) starting on Day 1. […] Animals receiving 5 mg/kg QTD experienced about a 50% reduction in growth, compared to untreated controls, while animals receiving 1 mg/kg QTD were affected by about 10%. […] They appeared very much like hypophysectamized animals might appear.

[14] = Effect on arterial resistance in the rat after i.v. administration; type: in vivo
Description: A 200-g rat was catheterized in the right carotid artery, and the compound was introduced over a ten-second period to a total dosage of 5 mg/kg. Within 30 seconds, the mean arterial pressure had fallen from about 100 mm Hg to about 70 mm Hg, with a marked reduction in pulse pressure from about 40 mm to about 10 mm. […] If cardiac output was basically unaffected, reduction in blood pressure would have resulted principally from a reduction in system resistance.
At that time, 40 μg of noradrenaline was introduced.

[15] = test system: L1210 lymphoblastic leukemia cells; assay: Mouse model of leukemia (L1210), survival and hematological profile; details: highest dose (10 mg/kg every 3 days i.p.); FIG. 11
Description: C57B mice were inoculated with L1210 lymphoblastic leukemia cells at an inoculum that causes leukemia in 100% of animals.

CC(C)C(CO)(CC[C@@H](C)[C@H]1CC[C@H]2[C@@H]3[C@H](O)C[C@H]4C[C@@H](NCCCNCCCCN)CC[C@]4(C)[C@H]3CC[C@]12C)OS(=O)(=O)O (single isomer, unassigned) [Compound 1437]
anticancer activity ([1]; SKOV3): anticancer activity
hyperglycemic response [2]: caused hyperglycemia in mice
observed response in tadpole (Xenopus tadpoles [3]; 10 μg/ml): Epithelium covering the embryonic portions of the animal, such as the tail and antennae, began to slough off in sheets; also recorded: Animal was otherwise active, with little tissue breakdown noted; also recorded: the larval skin was observed to shed off in a sheet

C[C@H](CCC(=O)O)[C@H]1CC[C@H]2[C@@H]3CC[C@H]4C[C@@H](NCCCNCCCCN)CC[C@]4(C)[C@H]3CC[C@]12C [Compound 319]
activity in vitelline capillary regression assay ([4]; Table 5): especially active
potency as an NHE inhibitor (NHE): superior to squalamine
CNS effects (Xenopus tadpoles [5]): no CNS effects
observed response in tadpole (Xenopus tadpoles [3]; 10 μg/ml): common vascular occlusive effect

N=C(N)NC(=O)c1nc(Cl)c(N)nc1N [Amiloride]
inhibition of NHE1β (NHE1β): inhibited by high concentrations of amiloride

CC(C)CCC[C@@H](C)[C@H]1CC[C@H]2[C@@H]3CC[C@H]4C[C@@H](NCCCNCCCCNCCCN)CC[C@]4(C)[C@H]3CC[C@]12C [Compound 353]
vitelline capillary regression, potency in words [4]: no effect on the chick embryo capillary bed
effect on melanoma growth, time dependence (human melanoma; FIG. 17A, less effect within first 12 hours): most pronounced over 48 hours
mode of cell death (human melanoma; cells exposed to compound 353): apoptotic cell death has been induced
minimal effective concentration (LLC): 1.9 µg/mL
NHE5 versus NHE3 selectivity (NHE5): inhibits NHE5 to a greater extent than NHE3
functional similarity in tadpole assay (Xenopus tadpoles [3]; Xenopus tadpole assay): effects like those produced by compound 1436

CC(C)[C@@H](CC[C@@H](C)[C@H]1CC[C@H]2[C@@H]3[C@H](O)C[C@H]4C[C@@H](NCCCNCCCCNCCCN)CC[C@]4(C)[C@H]3CC[C@]12C)OS(=O)(=O)O [Compound 1436]
vitelline capillary regression, potency in words [4]: about the same potency as squalamine
inhibition at 10 µg/mL (human T-cells): > 75%
inhibited in vitro [6]: INHIBITED
inhibited in vitro [7]: INHIBITED
inhibited in vitro (Human melanoma WM 1617): INHIBITED
inhibited in vitro (Lewis lung carcinoma): INHIBITED
inhibited in vitro (Murine B16 melanoma): INHIBITED
inhibited in vitro (Murine L1210 leukemia): INHIBITED
inhibited in vitro ([1]; 10 μg/ml): INHIBITED
inhibited in vitro [8]: INHIBITED
inhibited in vitro [9]: INHIBITED
inhibited in vitro [10]: INHIBITED
inhibited in vitro [11]: INHIBITED
effect of single agent versus combination (B16 melanoma): Neither administration of squalamine at 15 mg/kg/day nor compound 1436 alone in a tolerable schedule could achieve this effect
hyperglycemic response [2]: caused hyperglycemia in mice
suppression of growth of human coronary artery smooth muscle [12]: suppress in vitro the growth of human coronary artery smooth muscle
growth inhibition of mice ([13]; 10 mg/kg QTD i.p., after 6 doses, about 1 month): almost completely inhibited
apparent health ([13]; C57B mice, 1-10 mg/kg QTD i.p.): all were active, normally proportioned, not-cachectic, and in excellent apparent clinical health
suppression of linear growth and weight gain ([13]; normal growing mice, i.p.): suppresses both linear growth and weight gain in growing mice in a dose-dependent fashion
reversibility by noradrenaline ([14]; 40 μg noradrenaline at 30 minutes): readily reversible by standard pharmacological practice
duration of blood pressure effect followed without significant change ([14]; 5 mg/kg i.v.): 30 min
death / lethality time (Xenopus tadpoles [3]; 10 μg/ml): about 2 hours
observed response in tadpole (Xenopus tadpoles [3]; 10 μg/ml): common vascular occlusive effect; also recorded: Gradual reduction in overall activity. Heart beat remained strong, suggesting nervous system depression; also recorded: Melanocytes over head and tail began to swell, first exhibiting visibly distinct nuclei, followed by rupture into fragments; also recorded: dramatic disruption of melanocytes over its head, trunk, and tail, along with depression of its nervous system; also recorded: No effects are observed on epithelial cell integrity, vascular flow, erythrocyte volume, tissue integrity, muscle fiber striation, or GI tract activity
survival in L1210 leukemia mice [15]: significant prolongation of life
